In PubChem BioAssay AID1963838 (Molecular Pharmacology Branch, DTP, NCI, 2024):

Test system: 855422-203-R-J1-PDC complex spheroid viability
Experiment: Anticancer human tumor 855422-203-R-J1-PDC patient-derived bladder carcinoma cell line growth inhibition [POLQ]
Details: for IC50: curve of first compound; for viability, T/C: stronger effect = lower value
In short: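 Three-cell-type spheroids modelling solid tumor plus stroma served as the readout system; POL inhibitors were tested individually and in combination, concentration ranges set by clinical Cmax where known.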

[1] = second compound 0.0316 µM, first compound 0.0316 µM
[2] = second compound 0.0316 µM, first compound 0.1 µM
[3] = second compound 0.0316 µM, first compound 0.316 µM
[4] = second compound 0.0316 µM, first compound 1 µM
[5] = second compound 0.0316 µM, first compound 3.16 µM
[6] = second compound 0.0316 µM, first compound 10 µM
[7] = second compound 0.1 µM, first compound 0.0316 µM
[8] = second compound 0.1 µM, first compound 0.1 µM
[9] = second compound 0.1 µM, first compound 0.316 µM
[10] = second compound 0.1 µM, first compound 1 µM
[11] = second compound 0.1 µM, first compound 3.16 µM
[12] = second compound 0.1 µM, first compound 10 µM
[13] = second compound 0.316 µM, first compound 0.0316 µM
[14] = second compound 0.316 µM, first compound 0.1 µM
[15] = second compound 0.316 µM, first compound 0.316 µM
[16] = second compound 0.316 µM, first compound 1 µM
[17] = second compound 0.316 µM, first compound 3.16 µM
[18] = second compound 0.316 µM, first compound 10 µM
[19] = second compound 1 µM, first compound 0.0316 µM
[20] = second compound 1 µM, first compound 0.1 µM
[21] = second compound 1 µM, first compound 0.316 µM
[22] = second compound 1 µM, first compound 1 µM
[23] = second compound 1 µM, first compound 3.16 µM
[24] = second compound 1 µM, first compound 10 µM
[25] = second compound 3.16 µM, first compound 0.0316 µM
[26] = second compound 3.16 µM, first compound 0.1 µM
[27] = second compound 3.16 µM, first compound 0.316 µM
[28] = second compound 3.16 µM, first compound 1 µM
[29] = second compound 3.16 µM, first compound 3.16 µM
[30] = second compound 3.16 µM, first compound 10 µM
[31] = second compound 10 µM, first compound 0.0316 µM
[32] = second compound 10 µM, first compound 0.1 µM
[33] = second compound 10 µM, first compound 0.316 µM
[34] = second compound 10 µM, first compound 1 µM
[35] = second compound 10 µM, first compound 3.16 µM
[36] = second compound 10 µM, first compound 10 µM
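Note: spheroids exposed to compounds for seven days before readout.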

CC1COCCN1c1cc(C2(O)CC3CCC(C2)O3)c2cnn(-c3ccn[nH]3)c2n1 (stereo not drawn) + Nc1ccc(C#CCN(C(=O)Cc2ncc(C(F)(F)F)cc2C(F)(F)F)c2ccc(F)cc2)nn1
IC50 (second compound 0.0316 µM): 0.217 µM | IC50 (second compound 0.1 µM): 0.194 µM | IC50 (second compound 0.316 µM): 0.174 µM | IC50 (second compound 1 µM): 0.17 µM | IC50 (second compound 3.16 µM): 0.147 µM | IC50 (second compound 10 µM): 0.0989 µM | viability, T/C [1]: 111% | viability, T/C [2]: 105% | viability, T/C [3]: 23.2% | viability, T/C [4]: 12.7% | viability, T/C [5]: 11.1% | viability, T/C [6]: 7.13% | viability, T/C [7]: 139% | viability, T/C [8]: 84% | viability, T/C [9]: 24.7% | viability, T/C [10]: 12% | viability, T/C [11]: 11.2% | viability, T/C [12]: 5.82% | viability, T/C [13]: 117% | viability, T/C [14]: 78.9% | viability, T/C [15]: 18.5% | viability, T/C [16]: 13.2% | viability, T/C [17]: 12% | viability, T/C [18]: 5.73% | viability, T/C [19]: 104% | viability, T/C [20]: 72.7% | viability, T/C [21]: 23.1% | viability, T/C [22]: 10.9% | viability, T/C [23]: 10.2% | viability, T/C [24]: 5.09% | viability, T/C [25]: 107% | viability, T/C [26]: 69% | viability, T/C [27]: 12.6% | viability, T/C [28]: 14.6% | viability, T/C [29]: 9.39% | viability, T/C [30]: 5.42% | viability, T/C [31]: 151% | viability, T/C [32]: 48.6% | viability, T/C [33]: 17% | viability, T/C [34]: 11.1% | viability, T/C [35]: 9.46% | viability, T/C [36]: 4.88%

CC1COCCN1c1cc(C2(S(C)(=N)=O)CC2)nc(-c2ccnc3[nH]ccc23)n1 (stereo not drawn) + Nc1ccc(C#CCN(C(=O)Cc2ncc(C(F)(F)F)cc2C(F)(F)F)c2ccc(F)cc2)nn1
IC50 (second compound 0.0316 µM): 5.25 µM | IC50 (second compound 0.1 µM): 3.92 µM | IC50 (second compound 0.316 µM): 3.05 µM | IC50 (second compound 1 µM): 3.4 µM | IC50 (second compound 3.16 µM): 2.89 µM | IC50 (second compound 10 µM): 2.53 µM | viability, T/C [1]: 104% | viability, T/C [2]: 98.9% | viability, T/C [3]: 132% | viability, T/C [4]: 98.2% | viability, T/C [5]: 78.2% | viability, T/C [6]: 14.9% | viability, T/C [7]: 111% | viability, T/C [8]: 124% | viability, T/C [9]: 99.8% | viability, T/C [10]: 187% | viability, T/C [11]: 57.6% | viability, T/C [12]: 16.6% | viability, T/C [13]: 95.4% | viability, T/C [14]: 111% | viability, T/C [15]: 102% | viability, T/C [16]: 180% | viability, T/C [17]: 47.8% | viability, T/C [18]: 13.9% | viability, T/C [19]: 93.3% | viability, T/C [20]: 108% | viability, T/C [21]: 116% | viability, T/C [22]: 144% | viability, T/C [23]: 52.4% | viability, T/C [24]: 14.1% | viability, T/C [25]: 111% | viability, T/C [26]: 91.7% | viability, T/C [27]: 119% | viability, T/C [28]: 189% | viability, T/C [29]: 43.2% | viability, T/C [30]: 11.3% | viability, T/C [31]: 97.7% | viability, T/C [32]: 96.1% | viability, T/C [33]: 113% | viability, T/C [34]: 152% | viability, T/C [35]: 34.3% | viability, T/C [36]: 11.3%

CCc1cc2c(N3CCc4c(cc(Cn5ccnc5)cc4-c4cn(C)nc4C(F)(F)F)C3=O)ccnc2c(OC)n1 + Nc1ccc(C#CCN(C(=O)Cc2ncc(C(F)(F)F)cc2C(F)(F)F)c2ccc(F)cc2)nn1
IC50 (second compound 0.0316 µM): 9.24 µM | IC50 (second compound 0.1 µM): 9.09 µM | IC50 (second compound 0.316 µM): 6.82 µM | IC50 (second compound 1 µM): 8.55 µM | IC50 (second compound 3.16 µM): 7.63 µM | IC50 (second compound 10 µM): 6.77 µM | viability, T/C [1]: 107% | viability, T/C [2]: 142% | viability, T/C [3]: 133% | viability, T/C [4]: 93.7% | viability, T/C [5]: 87% | viability, T/C [6]: 46.4% | viability, T/C [7]: 125% | viability, T/C [8]: 142% | viability, T/C [9]: 130% | viability, T/C [10]: 93.1% | viability, T/C [11]: 76.3% | viability, T/C [12]: 45.8% | viability, T/C [13]: 136% | viability, T/C [14]: 147% | viability, T/C [15]: 133% | viability, T/C [16]: 88.1% | viability, T/C [17]: 72.6% | viability, T/C [18]: 39.4% | viability, T/C [19]: 98.1% | viability, T/C [20]: 121% | viability, T/C [21]: 109% | viability, T/C [22]: 115% | viability, T/C [23]: 72.2% | viability, T/C [24]: 46.5% | viability, T/C [25]: 148% | viability, T/C [26]: 131% | viability, T/C [27]: 125% | viability, T/C [28]: 124% | viability, T/C [29]: 72.6% | viability, T/C [30]: 43.1% | viability, T/C [31]: 98.9% | viability, T/C [32]: 122% | viability, T/C [33]: 112% | viability, T/C [34]: 111% | viability, T/C [35]: 72.6% | viability, T/C [36]: 38.5%

COc1cc2cc(C(=O)CCC(=O)O)sc2cc1OC + Nc1ccc(C#CCN(C(=O)Cc2ncc(C(F)(F)F)cc2C(F)(F)F)c2ccc(F)cc2)nn1
IC50 (second compound 0.0316 µM): > 10 µM | IC50 (second compound 0.1 µM): > 10 µM | IC50 (second compound 0.316 µM): > 10 µM | IC50 (second compound 1 µM): > 10 µM | IC50 (second compound 3.16 µM): > 10 µM | IC50 (second compound 10 µM): > 10 µM | viability, T/C [1]: 97.8% | viability, T/C [2]: 121% | viability, T/C [3]: 97.6% | viability, T/C [4]: 86.3% | viability, T/C [5]: 109% | viability, T/C [6]: 94.5% | viability, T/C [7]: 99.8% | viability, T/C [8]: 101% | viability, T/C [9]: 91% | viability, T/C [10]: 82% | viability, T/C [11]: 138% | viability, T/C [12]: 109% | viability, T/C [13]: 104% | viability, T/C [14]: 105% | viability, T/C [15]: 90% | viability, T/C [16]: 94.1% | viability, T/C [17]: 107% | viability, T/C [18]: 92% | viability, T/C [19]: 86.8% | viability, T/C [20]: 104% | viability, T/C [21]: 102% | viability, T/C [22]: 98.7% | viability, T/C [23]: 97.3% | viability, T/C [24]: 90.4% | viability, T/C [25]: 92.4% | viability, T/C [26]: 111% | viability, T/C [27]: 94.9% | viability, T/C [28]: 97.5% | viability, T/C [29]: 97.1% | viability, T/C [30]: 88.6% | viability, T/C [31]: 92.8% | viability, T/C [32]: 92% | viability, T/C [33]: 87.1% | viability, T/C [34]: 102% | viability, T/C [35]: 96% | viability, T/C [36]: 88.5%
